Test results published in patent US20030124084A1, “Use of dehydroepiandrosterone and/or precursors or derivatives thereof to improve papery aspect of the skin” (priority 2000, published 2003).

What was measured:
Format in all cases: in vivo, human
[1] = system: weathered appearance of the skin; assay: Clinical score of the weathered appearance of the skin, back of the hand, treated hand vs control hand
Experimental: A gelled oil-in-water emulsion containing 1% by weight of DHEA as sole active agent was tested in comparison with a vehicle consisting of an identical emulsion but not containing DHEA.
The products were tested on a group of forty women aged from 55 to 70. Half of the individuals applied the vehicle and the other half applied the DHEA-based emulsion, the choice of the individuals being made according to a computer-generated randomization. The emulsion was applied in the morning and in the evening for four months to the back of only one hand, the other hand serving as a control. The amounts applied were controlled by weighing the tubes at the start and end of the test.
The weathered appearance is assessed clinically under blind conditions on the back of each hand, at the start of the test and after four months, by the same clinician. The weathered appearance is represented by a clinical score ranging from 0 (weathered appearance absent or relatively unpronounced) to 9 (very pronounced weathered appearance).
The statistical analysis is performed by Wilcoxon tests.

skin of the face [2] = assay: Clinical scores of texture and flaccidness of the skin of the face
Experimental: (§1) This test was performed simultaneously with the one described in example 2, by applying the same products, onto the same groups of individuals, and under the same conditions, except that the products were applied to the skin of the face.
The texture of the skin and the flaccidness were assessed under blind conditions by the same clinician and are represented by clinical scores ranging from 0 (unpronounced or relatively unpronounced parameter) to 9 (very pronounced parameter).
(§2) The statistical analysis was performed by Wilcoxon tests.

skin of the face [3] = assay: Elasticity of the skin by Dermal Torque Meter
Experimental: as §1
The elasticity of the skin was assessed, at the start of the test and after four months, using the apparatus available under the tradename Dermal Torque Meter® from DTM® Dia-Stron Limited, Andover, Hampshire, United Kingdom. This apparatus makes it possible to study the response of the skin to a deformation applied in the direction parallel to its surface, as described in Escoffier C et al., Age-Related Mechanical Properties of Human Skin: an in Vivo Study, J. Invest. Dermatol., 1989, 93:353-357.
as §2

[4] = after four months, 1% DHEA emulsion topical on face, score 0 to 9
[5] = four months vs placebo, Wilcoxon test
[6] = start of test, face, score 0 to 9

## C[C@]12CC[C@H](O)CC1=CC[C@@H]1[C@@H]2CC[C@]2(C)C(=O)CC[C@@H]12 [DHEA, dehydroepiandrosterone]
[1]; after four months, 1% DHEA emulsion topical morning and evening on back of one hand, score 0 to 9, significant at p=0.05
  score for the weathered appearance on the treated hand vs control hand: lower
[1]; initial time (To), clinical score 0 to 9, women aged 55 to 70
  difference in scores of the weathered appearance between the two hands: virtually nonexistent
Skin of the face [2]; [4]
  Flaccidness clinical score, T4: 4.15
  Texture clinical score, T4: 3.8
Skin of the face [2]; [5]
  effect of topical application on flaccidness of the skin: does not significantly modify
  effect of topical application on texture of the skin: does not significantly modify
Skin of the face [2]; [6]
  Flaccidness clinical score, T0: 4.45
  Texture clinical score, T0: 4
Skin of the face [3]; after four months, 1% DHEA emulsion topical on face, Dermal Torque Meter
  Elasticity, T4: 0.66
Skin of the face [3]; [5]
  effect of topical application on elasticity of the skin: does not significantly modify
Skin of the face [3]; start of test, face, Dermal Torque Meter
  Elasticity, T0: 0.77
